ChEMBL document CHEMBL4689842, “EUbOPEN Chemogenomics Library wave 1” (2021)

Key:
Type in all cases: toxicity, cell-based
HEK-293T = assay: Incucyte cell viability with HEK293T; conditions: human, 10 µM, compound concentration 10 uM
Fibroblast = assay: Incucyte cell viability with human fibroblast; conditions: 10 µM, compound concentration 10 uM
U2OS = assay: Incucyte cell viability with U2OS; conditions: human, 10 µM, compound concentration 10 uM
[1] = 0 h, replicate number 1, timepoint 0 hours
[2] = 0 h, replicate number 2, timepoint 0 hours
[3] = 6 h, replicate number 1, timepoint 6 hours
[4] = 6 h, replicate number 2, timepoint 6 hours
[5] = 12 h, replicate number 1, timepoint 12 hours
[6] = 18 h, replicate number 1, timepoint 18 hours
[7] = 24 h, replicate number 1, timepoint 24 hours
[8] = 24 h, replicate number 2, timepoint 24 hours
[9] = 12 h, replicate number 2, timepoint 12 hours
[10] = 18 h, replicate number 2, timepoint 18 hours
Also: filed as whole numbers so only -1 and 0 and 1 occur.

Compound	Growth Rate (HEK-293T; [1])	Growth Rate (HEK-293T; [3])	Growth Rate (HEK-293T; [5])	Growth Rate (HEK-293T; [6])	Growth Rate (HEK-293T; [7])	Growth Rate (Fibroblast; [1])	Growth Rate (Fibroblast; [3])	Growth Rate (Fibroblast; [5])	Growth Rate (Fibroblast; [6])	Growth Rate (Fibroblast; [7])	Growth Rate (Fibroblast; [8])	Growth Rate (U2OS; [3])	Growth Rate (U2OS; [4])	Growth Rate (U2OS; [5])	Growth Rate (U2OS; [6])	Growth Rate (U2OS; [7])	Growth Rate (U2OS; [8])	Growth Rate (Fibroblast; [4])	Growth Rate (Fibroblast; [10])	Growth Rate (Fibroblast; [9])	further results
CCOC(=O)c1cc(C#N)c(N2CCC(C(=O)NS(=O)(=O)Cc3ccccc3)CC2)nc1C	1	0	0	0	0	0	0	0	0	1	0	1	0	0	0	0	1				Growth Rate (HEK-293T; [2]): 0; Growth Rate (HEK-293T; [4]): 1; Growth Rate (HEK-293T; [8]): 1; Growth Rate (U2OS; [2]): 1; Growth Rate (U2OS; [9]): 1; Growth Rate (U2OS; [10]): 1
C[C@H](CO)Nc1nc(SCc2cccc(Cl)c2F)nc2[nH]c(=O)sc12	0	1	1	1	1	0	1	1	1	1		1	0	0	0	1	0	0	0		
CCNC(=O)c1cc2c(N3CCOC[C@@H]3C)ccnc2[nH]1	1	0	0	0	0	0	0	1	1	1	0	1	0	0	0	0		1	0	0	Growth Rate (HEK-293T; [2]): 0; Growth Rate (U2OS; [1]): 1
N#Cc1c(N)nc(SCC(N)=O)c(C#N)c1-c1ccc(OCC2CC2)cc1	0	1	1	0	0	0				1			0	1	1	1	0	0	1	1	Growth Rate (HEK-293T; [9]): 0; Growth Rate (U2OS; [1]): 0
CCCCN(CCCC)C(=O)CN1C[C@@H](c2ccc3c(c2)OCO3)[C@H](C(=O)O)[C@H]1c1ccc(OC)cc1	0	1	1	1	1	0			1	1	0	0		0	0	0		0		1	Growth Rate (HEK-293T; [10]): 0; Growth Rate (HEK-293T; [8]): 0
CCN(CC)CCCCC1CCN(CC(=O)N2c3ccccc3C(=O)Nc3cccnc32)CC1	0	1	1	1	1	0		1	1	1			0	1	1	1	0				Growth Rate (Fibroblast; [2]): 1; Growth Rate (U2OS; [1]): 0; Growth Rate (U2OS; [10]): 0
O=C(NCc1ccc(F)cc1)C1CCN(S(=O)(=O)c2cc(Cl)cc(Cl)c2)CC1	0	1	1	0	0	0				1			0	1	0	0	1	1	1	1	Growth Rate (HEK-293T; [9]): 0; Growth Rate (U2OS; [1]): 0; Growth Rate (U2OS; [9]): 0; Growth Rate (U2OS; [10]): 1
CCCCN(CCCC)C(=O)CN1C[C@@H](c2cc(OC)c3c(c2)OCO3)[C@H](C(=O)O)[C@H]1CC(C)(C)CCC.Cl	0	0	0	0	0		0	0	0	0	1		0	0	0	0	1		1	1	Growth Rate (Fibroblast; [2]): 0; Growth Rate (U2OS; [10]): 1
